Test systems include 786-0 renal; HCT-116 colon; HOP-62 NSCLC; HOP-92 NSCLC; M14 melanoma; NCI-H522 lung; RXF 393 renal; SF-268 CNS; SK-MEL-2 melanoma; SN12C renal.
Assay in all cases: inhibition of tumour cell growth, NCI panel, 48 h

SMILES strings stand for the structures. “And” between values parts separate entries of the source, which are not always exact repeats. Equal entries are not always repeated.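 How tested: cells in 96-well plates exposed to compound for 48 hours at five concentrations. GI50: concentration for 50% inhibition of growth. TGI denotes the concentration required for complete inhibition of growth.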 *1 amine or outer side, *2 acyl side, *3 side chain or, on linkers, in order; H or OH if unused. Where a SMILES comes first, the peptide text is derived from it. Bridges are numbered along the chain shown (N, C = ends). [ ]: non-standard residue; d: D form. ξ: configuration not given here. X4 = CCC(C)C(N[*:1])C(O)CC(=O)O[C@H](C(=O)C(C)C(=O)[*:2])C(C)C; NMeY = CN[C@@H](Cc1ccc(O)cc1)C(=O)O; X9 = O=C([C@@H]1CC(O)CN1[*:1])[*:2]; ξNMeL = CNC(CC(C)C)C(=O)O; ξT = CC(O)C(N)C(=O)O Where only a bound is given, the exact number is not on record here.

With `COC(=O)C1=CN(CC2=CC(=O)C(C)=CC2=O)C=C(C(=O)OC)C1c1cccc(OC)c1OC`, the GI50 in the experiment with 786-0 renal was 7.56 µM; with HCT-116 colon it was 18.5 µM; in the experiment with HOP-62 NSCLC it was 15.8 µM; in the experiment with HOP-92 NSCLC, 2.68 µM; in the experiment with M14 melanoma, 15.3 µM; with NCI-H522 lung, 17 µM. Also, the GI50 is 11.5 µM in the experiment on RXF 393 renal, 18.7 µM in the experiment with SF-268 CNS, 19.8 µM in the experiment on SK-MEL-2 melanoma and 13.8 µM in the experiment on SN12C renal. Besides, the TGI was 25.3 µM with 786-0 renal; 36.7 µM in the experiment with HCT-116 colon; greater than 48.1 µM with HOP-62 NSCLC; 17.1 µM with HOP-92 NSCLC; 29.4 µM with M14 melanoma; 45.2 µM in the experiment on NCI-H522 lung. Also, the TGI is 26.9 µM in the experiment on RXF 393 renal, greater than 68.4 µM in the experiment on SF-268 CNS, 52.1 µM in the experiment on SK-MEL-2 melanoma and 34 µM in the experiment with SN12C renal.
For the compound `CCCCCC(=O)N1c2ccccc2NC2=C(C(=O)CC(c3ccc(OC)c(OC)c3)C2)C1c1ccc(C(F)(F)F)cc1` (stereo not drawn), the GI50 with 786-0 renal was greater than 100 µM; with HCT-116 colon, 72.1 µM; in the experiment on HOP-62 NSCLC, greater than 100 µM; with HOP-92 NSCLC it was 12.2 µM; in the experiment on NCI-H522 lung, 70.8 µM; in the experiment on RXF 393 renal, 37.6 µM. Also, the GI50 with SF-268 CNS, with SK-MEL-2 melanoma and in the experiment on SN12C renal was greater than 100 µM throughout. For the same compound, the TGI with 786-0 renal, in the experiment with HCT-116 colon, with HOP-62 NSCLC, with HOP-92 NSCLC, in the experiment with NCI-H522 lung and in the experiment with RXF 393 renal was greater than 100 µM each time. Moreover, the TGI with SF-268 CNS, in the experiment with SK-MEL-2 melanoma and in the experiment on SN12C renal was greater than 100 µM throughout.
With `COc1ccc(C2=NNC(c3ccc(-c4ccc(OC)cc4[N+](=O)[O-])o3)C2)cc1` (stereo not drawn), the GI50 in the experiment on 786-0 renal is 48.8 µM; in the experiment on HCT-116 colon it was 22.8 µM; with HOP-62 NSCLC, 30.6 µM; in the experiment with HOP-92 NSCLC it was 15.1 µM; with M14 melanoma it was 71.3 µM; in the experiment with NCI-H522 lung it was 34.9 µM. Further, the values for the GI50 in the experiment with RXF 393 renal, with SF-268 CNS and with SK-MEL-2 melanoma were 20.3 µM, 20.3 µM and greater than 100 µM, respectively. For the same compound, the TGI in the experiment with 786-0 renal was greater than 100 µM; with HCT-116 colon it was greater than 100 µM; with HOP-62 NSCLC it was greater than 100 µM; in the experiment on HOP-92 NSCLC, 81 µM; in the experiment with M14 melanoma, greater than 100 µM; in the experiment on NCI-H522 lung it was greater than 100 µM. For the same compound, the values for the TGI with RXF 393 renal, with SF-268 CNS and in the experiment on SK-MEL-2 melanoma were 54.1 µM, 53.2 µM and greater than 100 µM, respectively.
As for `C/C(=N\NC(=S)N(C)C)c1ncc[nH]1`, the TGI in the experiment on 786-0 renal is 5.67 µM; in the experiment on HCT-116 colon it was greater than 100 µM; in the experiment with HOP-92 NSCLC, 7.85 µM; in the experiment with M14 melanoma, 5.69 µM; with NCI-H522 lung, 9.01 µM; in the experiment with RXF 393 renal, greater than 100 µM. The values for the TGI with SF-268 CNS, in the experiment on SK-MEL-2 melanoma and in the experiment with SN12C renal were greater than 100 µM, 70.9 µM and 66.5 µM, respectively.
On to `CCC(C)C1NC(=O)C(NC(=O)C(CC(C)C)N(C)C(=O)[C@@H]2CC(O)CN2)C(C)OC(=O)[C@H](Cc2ccc(OC)cc2)N(C)C(=O)[C@@H]2CCCN2C(=O)[C@H](CC(C)C)NC(=O)C(C)C(=O)[C@H](C(C)C)OC(=O)CC1O` (stereo partly drawn) (H-[X9][ξNMeL][ξT][X4]LP[NMeY](Me); ester 3-C), for which the GI50 is 0.0162 µM in the experiment with 786-0 renal and 0.0109 µM in the experiment with SN12C renal. In addition, the TGI is 0.149 µM and 1.25 µM in the experiment with 786-0 renal; 0.154 µM in the experiment on HOP-62 NSCLC; 0.242 µM and 0.0658 µM in the experiment on HOP-92 NSCLC; 0.11 µM and 0.126 µM with M14 melanoma; 0.0519 µM and 0.0638 µM in the experiment on NCI-H522 lung; 0.0965 µM and 0.0648 µM in the experiment with RXF 393 renal. For the same compound, the TGI in the experiment with SF-268 CNS was 0.172 µM and 0.252 µM; in the experiment on SK-MEL-2 melanoma it was 0.0496 µM and 0.0758 µM; in the experiment with SN12C renal, 0.0759 µM and 0.682 µM.
As for `O=c1cc/c(=N\Nc2ccccc2)c(=O)/c1=N/Nc1ccccc1`, the GI50 in the experiment on 786-0 renal, with HCT-116 colon, with HOP-62 NSCLC, with HOP-92 NSCLC, with M14 melanoma and in the experiment with RXF 393 renal was greater than 50 µM throughout. Besides, the GI50 in the experiment with SF-268 CNS, with SK-MEL-2 melanoma and with SN12C renal was greater than 50 µM throughout. Moreover, the TGI in the experiment with 786-0 renal, in the experiment on HCT-116 colon, in the experiment on HOP-62 NSCLC, in the experiment on HOP-92 NSCLC, in the experiment with M14 melanoma and with RXF 393 renal was greater than 50 µM each time. For the same compound, the TGI with SF-268 CNS, in the experiment on SK-MEL-2 melanoma and in the experiment on SN12C renal was greater than 50 µM each time.
Consider `CC(=O)/C=C1/c2ccccc2N(C(C)=O)C1O` (stereo not drawn), for which the TGI in the experiment on 786-0 renal, in the experiment on HCT-116 colon, in the experiment on HOP-62 NSCLC, with HOP-92 NSCLC, in the experiment with M14 melanoma and in the experiment on RXF 393 renal was greater than 100 µM throughout. Moreover, the TGI in the experiment with SK-MEL-2 melanoma and with SN12C renal was greater than 100 µM in each case.
`O=C(CNC(=O)c1cccc2ccccc12)Nc1ccccc1Oc1cccc(O)c1`: the GI50 in the experiment on 786-0 renal is 9.93 µM; in the experiment with HCT-116 colon, 1.36 µM; in the experiment on HOP-62 NSCLC, 8.22 µM; in the experiment on HOP-92 NSCLC it was greater than 25 µM; in the experiment with M14 melanoma it was 1.56 µM; in the experiment with NCI-H522 lung it was 1.62 µM. Besides, the GI50 is 4.12 µM with RXF 393 renal, 20.9 µM with SF-268 CNS and greater than 25 µM with SN12C renal. Moreover, the TGI in the experiment on 786-0 renal, in the experiment on HCT-116 colon, in the experiment on HOP-62 NSCLC, with HOP-92 NSCLC, in the experiment with M14 melanoma and in the experiment with NCI-H522 lung was greater than 25 µM in each case. Besides, the TGI in the experiment with RXF 393 renal is 15.4 µM; with SF-268 CNS it was greater than 25 µM; in the experiment with SN12C renal, greater than 25 µM.
Regarding `COc1ccc(C2(CN(C)C)COc3cc(OC)c(OC)cc3C2=O)cc1OC` (stereo not drawn), the TGI is greater than 100 µM in the experiment with 786-0 renal; 30.3 µM in the experiment with HCT-116 colon; greater than 100 µM with HOP-62 NSCLC; greater than 100 µM in the experiment with HOP-92 NSCLC; greater than 100 µM in the experiment with M14 melanoma; greater than 100 µM in the experiment on NCI-H522 lung. Further, the TGI in the experiment on RXF 393 renal was 79.2 µM; with SF-268 CNS it was greater than 100 µM; in the experiment on SN12C renal, greater than 100 µM.
With `O=c1c2cc(Br)ccc2oc2ccc(Br)cc12`, the TGI in the experiment on 786-0 renal, in the experiment with HCT-116 colon, in the experiment with HOP-92 NSCLC, in the experiment on M14 melanoma, in the experiment with NCI-H522 lung and with RXF 393 renal was greater than 100 µM each time. The TGI with SF-268 CNS, with SK-MEL-2 melanoma and with SN12C renal was greater than 100 µM throughout.

Source of the values: PubChem BioAssay (NCI).
